Test results published in patent US12577201B2, “Glutamine analogs” (Jacobio Pharmaceuticals Co., Ltd., priority 2020, dated 2026).

Legend:
[1] = Stability in liver microsomes, monkey; format: in vitro ADME; conditions: 60 minutes, read-out: In vitro Clint
Method: (§1) For metabolic stability, microsomes from human, monkey, dog, rat and mouse were used. For stability, prodrugs (1 μM) were spiked in each microsomes matrix and incubated in an orbital shaker at 37° C. Aliquots of 50 μL were taken from the reaction solution at 0, 15, 30, 45 and 60 min. The reaction was stopped by the addition of 4 volumes of cold acetonitrile with IS (100 nM alprazolam, 200 nM labetalol, 200 nM caffeine and 2 μM ketoprofen). Samples were centrifuged at 3, 220 g for 40 minutes. Aliquot of 100 μL of the supernatant was mixed with 100 μL of ultra-pure H2O and then used for LC-MS/MS analysis.
(§2) For LC-MS/MS, prodrugs were analyzed on an API 4000 instrument from AB Inc (Canada) with an ESI interface coupled to Shimadzu LC system on an Waters XSelect HSS T3 C18, 2.5 m, 2.1×30 mm column.
(§3) For data analysis, peak areas were determined from extracted ion chromatograms. The slope value, k, was determined by linear regression of the natural logarithm of the remaining percentage of the parent drug vs. incubation time curve. The in vitro half-life (in vitro t1/2) was determined from the slope value: in vitro t1/2=−(0.693/k)
(§4) Conversion of the in vitro t1/2 (min) into the in vitro intrinsic clearance (in vitro CLint, in μL/min/mg protein) was done using the following equation (mean of duplicate determinations): […]

[2] = Plasma stability, monkey plasma; conditions: 1 μM, 37° C., 4 hours
Method: (§5) For metabolic stability, plasma from dog, monkey, swine and human were used. For stability, prodrugs (1 μM) were spiked in respective solutions and incubated in an orbital shaker at 37° C. 50 μL aliquots of the mixture in duplicate were removed, and the reaction quenched by addition of four times the volume of ice cold acetonitrile spiked with the internal standard (Dexamethasone 100 ng/mL). […] 100 μL of the supernatant was diluted with 100 μL of water and transferred to the 0.6 mL plastic tubes on 96-well plate. Prodrug disappearance was monitored over time using a liquid chromatography and tandem mass spectrometry (LC-MS/MS).
(§6) For LC-MS/MS, prodrugs were analyzed on a ExionLC AD HPLC system coupled to REF Triple Quad 5500+ mass spectrometer with an ESI interface on an Phenomenex Kinetex 5 m C18 100A (2.1*50) mm UPLC column. The autosampler was temperature controlled and was operated at 4° C. The mobile phase used for the chromatographic separation was composed of acetonitrile/water containing 0.10% formic acid and will run at a flow rate of 0.6 mL/min for 3.5 min using gradient elution. The column effluent was monitored using […], equipped with an electrospray probe set in the positive ionization mode. Samples were introduced into the ionization source through a heated nebulized probe (400° C.). Disappearance of prodrugs will be measured from ratio of peak areas of analyte to IS.
(§7) For quantification of compound remaining, disappearance of prodrugs was measured from ratio of peak areas of analyte to IS.

[3] = Stability in liver microsomes, mouse; format: in vitro ADME; conditions: 60 minutes, read-out: In vitro Clint
Method: as §1, §2, §3, §4

[4] = Plasma stability, dog plasma; format: in vitro ADME; conditions: 1 μM, 37° C., 4 hours
Method: For metabolic stability, plasma from dog, monkey, swine and human were used. For stability, prodrugs (1 μM) were spiked in respective solutions and incubated in an orbital shaker at 37° C. 50 μL aliquots of the mixture in duplicate were removed, and the reaction quenched by addition of four times the volume of ice cold acetonitrile spiked with the internal standard (Dexamethasone 100 ng/mL). The samples were vortexed for 30 s and centrifuged at 15000 g for 5 min. 100 μL of the supernatant was diluted with 100 μL of water and transferred to the 0.6 mL plastic tubes on 96-well plate. Prodrug disappearance was monitored over time using a liquid chromatography and tandem mass spectrometry (LC-MS/MS).
as §6, §7

MC38 tumor cells = test: Anti-tumor efficacy in MC38 model in C57BL/6 mouse (Example 11); format: in vivo; conditions: C57BL/6, MC38, 2 μmol/kg S.C. QD; for T/C (%) / TGI (%) / TV (mm^3) (Mean ± SEM) D6 / TV (mm^3) (Mean ± SEM) D10 / TV (mm^3) (Mean ± SEM) D13 / TV (mm^3) (Mean ± SEM) D17 / TV (mm^3) (Mean ± SEM) D20: Example 11; for TV (mm^3) at D21 (Mean ± SEM): Table 13
Method: Animal species: Mus musculus; Strain: C57BL/6; Age: 6-8 weeks; Sex: female. The MC38 tumor cells were maintained in vitro in DMEM medium supplemented with 10% FBS at 37° C., 5% CO2. The cells growing in an exponential growth phase were harvested and counted for tumor inoculation. The culture MC38 were harvested, re-suspended in PBS containing 50% Matrigel at a density of 1×10^7 cells/mL. Each mouse was inoculated subcutaneously in the right flank region with 1×10^6 cells in 0.1 mL of PBS containing 50% Matrigel for tumor development.
The treatments were started when the mean tumor size reached 82-129 mm^3 (average tumor size 102 mm^3). Each group contained 6 tumor bearing mice. Group 1 was treated with Vehicle (10% DMSO+90% Saline), S.C., QD.
(§8) In vivo efficacy was examined according to absolute tumor growth inhibition (TGI) and the safety was evaluated according to weight change and survival in mice.
Statistical analysis of difference in tumor volume among the groups was performed using one-way ANOVA followed by individual comparisons using Games-Howell post-hoc test (equal variance not assumed). All data was analyzed using SPSS 22.0 software.

[5] = Stability in liver microsomes, rat; format: in vitro ADME; conditions: 60 minutes, read-out: In vitro Clint
Method: as §1, §2, §3, §4

[6] = Plasma stability, human plasma; conditions: 1 μM, 37° C., 4 hours
Method: as §5, §6, §7

[7] = Body weight of C57BL/6 mice bearing MC38 tumors (Example 11); format: in vivo, Mus musculus; conditions: C57BL/6, MC38, 2 μmol/kg S.C. QD; for BW Change (%): D6 to D20
Method: The treatments were started when the mean tumor size reached 82-129 mm^3 (average tumor size 102 mm^3). Each group contained 6 tumor bearing mice. Group 1 was treated with Vehicle (10% DMSO+90% Saline), S.C., QD. Group 2 was given treatments with compound 2 at 2 μmol/kg, S.C., QD. Group 3 was given treatments with compound 81 at 2 μmol/kg, S.C., QD. Group 4 was given treatments with compound 443 at 2 μmol/kg, S.C., QD. Group 5 was given treatments with compound 459 at 2 μmol/kg, S.C., QD. Group 6 was given treatments with compound 3 at 2 μmol/kg, S.C., QD.
as §8

[8] = Stability in liver microsomes, dog; format: in vitro ADME; conditions: 60 minutes, read-out: In vitro Clint
Method: as §1, §2, §3, §4

[9] = Plasma stability, swine plasma; conditions: 1 μM, 37° C., 4 hours
Method: as §5, §6, §7

[10] = Stability in liver microsomes, human; format: in vitro ADME; conditions: 60 minutes, read-out: In vitro Clint
Method: as §1, §2, §3, §4

For CO[C@@H](CCSC)C(=O)N[C@@H](CCC(=O)C=[N+]=[N-])C(=O)OC(C)C [Compound 443, isopropyl (S)-6-diazo-2-((S)-2-methoxy-4-(methylthio)butanamido)-5-oxohexanoate], the microsomal CLint at 1 μM [1] was 180 µL/min/mg, the “plasma stability (compound remaining)” value [2] was “substantially intact” and the microsomal CLint at 1 μM [3] was 408 µL/min/mg. For the same compound, the “plasma stability (compound remaining)” value [4] was “substantially intact”, the “T/C (%)” value (MC38 tumor cells) was 21.5% and the “TGI (%)” value (MC38 tumor cells) was 78.5%. The “TV (mm^3) (Mean ± SEM) D6” value (MC38 tumor cells) was 102 ± 6 mm^3, the “TV (mm^3) (Mean ± SEM) D10” value (MC38 tumor cells) was 152 ± 25 mm^3 and the “TV (mm^3) (Mean ± SEM) D13” value (MC38 tumor cells) was 267 ± 65 mm^3. The “TV (mm^3) (Mean ± SEM) D17” value (MC38 tumor cells) was 384 ± 95 mm^3, the “TV (mm^3) (Mean ± SEM) D20” value (MC38 tumor cells) was 500 ± 119 mm^3 and the “TV (mm^3) at D21 (Mean ± SEM)” value (MC38 tumor cells) was 500 ± 119 mm^3. The microsomal CLint at 1 μM [5] was 239 µL/min/mg, the “plasma stability (compound remaining)” value [6] was “substantially intact” and the “BW(g) (Mean ± SEM) Beginning (D6)” value [7] was 19.9 ± 0.6 g. The “BW Change (%)” value [7] was “+11.9%”, the “BW(g) (Mean ± SEM) End (D20)” value [7] was 22.3 ± 0.5 g and the microsomal CLint at 1 μM [8] was 81.9 µL/min/mg. The “plasma stability (compound remaining)” value [9] was “substantially intact” and the microsomal CLint at 1 μM [10] was 73.5 µL/min/mg.

With CO[C@@H](C)C(=O)N[C@@H](CCC(=O)C=[N+]=[N-])C(=O)SC(C)C [Compound 459, S-isopropyl (S)-6-diazo-2-((S)-2-methoxypropanamido)-5-oxohexanethioate] the microsomal CLint at 1 μM [1] was 130 µL/min/mg, the “plasma stability (compound remaining)” value [2] was “substantially intact” and the microsomal CLint at 1 μM [3] was 71.7 µL/min/mg. For the same compound, the “plasma stability (compound remaining)” value [4] was “substantially intact”, the “T/C (%)” value (MC38 tumor cells) was 11.8% and the “TGI (%)” value (MC38 tumor cells) was 88.2%. The “TV (mm^3) (Mean ± SEM) D6” value (MC38 tumor cells) was 102 ± 5 mm^3, the “TV (mm^3) (Mean ± SEM) D10” value (MC38 tumor cells) was 148 ± 22 mm^3 and the “TV (mm^3) (Mean ± SEM) D13” value (MC38 tumor cells) was 183 ± 30 mm^3. For the same compound, the “TV (mm^3) (Mean ± SEM) D17” value (MC38 tumor cells) was 281 ± 65 mm^3, the “TV (mm^3) (Mean ± SEM) D20” value (MC38 tumor cells) was 275 ± 59 mm^3 and the “TV (mm^3) at D21 (Mean ± SEM)” value (MC38 tumor cells) was 275 ± 59 mm^3. For the same compound, the microsomal CLint at 1 μM [5] was 115 µL/min/mg, the “plasma stability (compound remaining)” value [6] was “substantially intact” and the “BW(g) (Mean ± SEM) Beginning (D6)” value [7] was 19.9 ± 0.3 g. For the same compound, the “BW Change (%)” value [7] was “+6.3%”, the “BW(g) (Mean ± SEM) End (D20)” value [7] was 21.1 ± 0.5 g and the microsomal CLint at 1 μM [8] was 9.57 µL/min/mg. For the same compound, the “plasma stability (compound remaining)” value [9] was “substantially intact” and the microsomal CLint at 1 μM [10] was 18.9 µL/min/mg.
